Where two headings read alike, the source gives them in different places.
What was measured:
Experiment in all cases: MIC of compounds alone and combined with antibacterials, broth microdilution (CLSI)
Format in all cases: cell-based
[1] = tested on: Citrobacter koseri (CKR) isolates; conditions: Citrobacter koseri, alone, read-out: MIC
In short: (§1)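 Broth microdilution in cation-adjusted Mueller-Hinton broth, inoculum 5.10^5 CFU/mL, 16-20 h at 35° C in ambient air, on genotyped isolates. Compound MIC, alone or with an antibacterial, taken visually as lowest concentration preventing growth; antibacterial MIC determined at each compound concentration.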

[2] = tested on: Enterobacter cloacae (ECL) isolates; conditions: Enterobacter cloacae, read-out: MIC
In short: as §1

[3] = tested on: Escherichia coli (ECO) isolates; conditions: Escherichia coli, read-out: MIC
In short: as §1

[4] = tested on: Providencia rettgeri (PRE) isolates; conditions: Providencia rettgeri, read-out: MIC
In short: as §1

O=C1N2CC(n3cccn3)=CC(C2)N1OC(F)(F)C(=O)[O-].[Li+] (stereo not drawn) [AF3]
MIC ([1]; CKO ROU): 32 µg/mL
MIC ([1]; CKO UFR149): 16 µg/mL
MIC ([1]; CKO UFR150): > 32 µg/mL
MIC ([2]; ECL 2185D, alone): 32 µg/mL
MIC ([2]; ECL 190310, alone): 32 µg/mL
MIC ([2]; ECL 190408, alone): 4 µg/mL
MIC ([2]; ECL 200138, alone): 16 µg/mL
MIC ([2]; ECL 200322, alone): 8 µg/mL
MIC ([2]; ECL 260033, alone): 16 µg/mL
MIC ([2]; ECL 260253, alone): 32 µg/mL
MIC ([2]; ECL 260323, alone): 16 µg/mL
MIC ([2]; ECL 260508, alone): 8 µg/mL
MIC ([2]; ECL HAN, alone): 32 µg/mL
MIC ([2]; ECL NEM146383, alone): 16 µg/mL
MIC ([2]; ECL P99, alone): 16 µg/mL
MIC ([2]; ECL UFR12, alone): 8 µg/mL
MIC ([2]; ECL UFR13, alone): 32 µg/mL
MIC ([2]; ECL UFR14, alone): 32 µg/mL
MIC ([2]; ECL UFR38, alone): 8 µg/mL
MIC ([2]; ECL UFR51, alone): 8 µg/mL
MIC ([2]; ECL UFR60, alone): 16 µg/mL
MIC ([2]; ECL UFR70, alone): 8 µg/mL
MIC ([2]; ECL UFR84, alone): 32 µg/mL
MIC ([2]; ECL UFR85, alone): 16 µg/mL
MIC ([2]; ECL UFR200, alone): 16 µg/mL
MIC ([2]; strain ECL UFR192, compound alone): 32 µg/mL
MIC ([2]; strain ECL UFR193, compound alone): 16 µg/mL
MIC ([2]; strain ECL UFR194, compound alone): 16 µg/mL
MIC ([2]; strain ECL UFR195, compound alone): 16 µg/mL
MIC ([2]; strain ECL UFR196, compound alone): 16 µg/mL
MIC ([2]; strain ECL UFR197, compound alone): 16 µg/mL
MIC ([2]; strain ECL UFR198, compound alone): 32 µg/mL
MIC ([2]; strain ECL UFR203, compound alone): 32 µg/mL
MIC ([2]; strain ECL UFR214, compound alone): > 32 µg/mL
MIC ([2]; strain ECL UFR252PT, compound alone): > 32 µg/mL
MIC ([3]; ECO 4133, alone): 4 µg/mL
MIC ([3]; ECO 5302, alone): 4 µg/mL
MIC ([3]; ECO 131119, alone): 4 µg/mL
MIC ([3]; ECO 180070, alone): 4 µg/mL
MIC ([3]; ECO 190314, alone): 8 µg/mL
MIC ([3]; ECO 190317, alone): 4 µg/mL
MIC ([3]; ECO 190457, alone): 4 µg/mL
MIC ([3]; ECO 190549, alone): 4 µg/mL
MIC ([3]; ECO 200159, alone): 4 µg/mL
MIC ([3]; ECO 200259, alone): 4 µg/mL
MIC ([3]; ECO 200344, alone): 4 µg/mL
MIC ([3]; ECO 260096, alone): 16 µg/mL
MIC ([3]; ECO 260304, alone): 8 µg/mL
MIC ([3]; ECO 260508, alone): 8 µg/mL
MIC ([3]; ECO (strain number on grid row 356, not shown), alone): 8 µg/mL
MIC ([3]; ECO RGN238, alone): 8 µg/mL
MIC ([3]; ECO UFR15, alone): 8 µg/mL
MIC ([3]; ECO UFR16, alone): 8 µg/mL
MIC ([3]; ECO UFR17, alone): > 32 µg/mL
MIC ([3]; ECO UFR18, alone): 8 µg/mL
MIC ([3]; ECO UFR19, alone): 8 µg/mL
MIC ([3]; ECO UFR32, alone): 8 µg/mL
MIC ([3]; ECO UFR39, alone): 8 µg/mL
MIC ([3]; ECO UFR41, alone): 8 µg/mL
MIC ([3]; ECO UFR45, alone): 4 µg/mL
MIC ([3]; ECO UFR52, alone): 8 µg/mL
MIC ([3]; ECO UFR61O, alone): 16 µg/mL
MIC ([3]; ECO UFR62, alone): 8 µg/mL
MIC ([3]; ECO UFR74, alone): 8 µg/mL
MIC ([3]; ECO UFR86, alone): 16 µg/mL
MIC ([3]; ECO UFR174, alone): 4 µg/mL
MIC ([3]; ECO UFR175, alone): 16 µg/mL
MIC ([3]; ECO UFR176, alone): 8 µg/mL
MIC ([3]; ECO UFR184, alone): 8 µg/mL
MIC ([3]; ECO UFR208, alone): 16 µg/mL
MIC ([3]; ECO UFR209, alone): 8 µg/mL
MIC ([3]; ECO UFR210, alone): 4 µg/mL
MIC ([3]; ECO UFR211, alone): 8 µg/mL
MIC ([3]; ECO UFR212, alone): 8 µg/mL
MIC ([3]; ECO URF20, alone): 8 µg/mL
MIC ([3]; strain ECO UFR177, compound alone): 8 µg/mL
MIC ([3]; strain ECO UFR178, compound alone): 16 µg/mL
MIC ([3]; strain ECO UFR179, compound alone): 16 µg/mL
MIC ([3]; strain ECO UFR180, compound alone): 8 µg/mL
MIC ([3]; strain ECO UFR181, compound alone): 16 µg/mL
MIC ([3]; strain ECO UFR182, compound alone): 16 µg/mL
MIC ([3]; strain ECO UFR183, compound alone): 32 µg/mL
MIC ([3]; strain ECO UFR186, compound alone): 8 µg/mL
MIC ([3]; strain ECO UFR187, compound alone): 32 µg/mL
MIC ([3]; strain ECO UFR189, compound alone): 8 µg/mL
MIC ([3]; strain ECO UFR190, compound alone): 8 µg/mL
MIC ([3]; strain ECO UFR191, compound alone): 8 µg/mL
MIC ([3]; strain ECO UFR204, compound alone): 8 µg/mL
MIC ([3]; strain ECO UFR205, compound alone): 8 µg/mL
MIC ([3]; strain ECO UFR206, compound alone): 16 µg/mL
MIC ([3]; strain ECO UFR252GO, compound alone): 8 µg/mL
MIC ([3]; strain ECO UFR255, compound alone): 4 µg/mL
MIC ([4]; PRE UFR99, alone): 16 µg/mL
MIC ([4]; strain PRE UFR96, compound alone): 4 µg/mL
MIC ([4]; strain PRE UFR97, compound alone): 32 µg/mL
MIC ([4]; strain PRE UFR236, compound alone): 32 µg/mL

— patent US20200017495A1, “NOVEL HETEROCYCLIC COMPOUNDS AND THEIR USE IN PREVENTING OR TREATING BACTERIAL INFECTIONS” (priority 2017, published 2020)
